Results: paper PMC6151525, “Investigation of the N-Terminus Amino Function of Arg10-Teixobactin” (Molecules : A Journal of Synthetic Chemistry and Natural …, 2017)
Where two headings read alike, the source gives them in different places.

What was measured:
[1] = format: physicochemical
Procedure: The most hydrophobic analogs, 5, 6, and 8, presented several difficulties regarding purification. […] Nevertheless, by washing the solid obtained several times with 30% acetonitrile in water, impurities from the cyclization were removed, as were the protecting groups, and the decanoyl derivative was obtained in good purity (Figure S11). The mixture of compounds 5 and 6 was also a challenge with respect to solubilization. In this case, the addition first of 100 μL of TFA and then 7 mL of acetonitrile, followed by sonication for 15 min, yielded a clear solution. Then, 3 mL of water was added slowly and no precipitation of the compounds was observed. This solution was injected into the semi-preparative HPLC, and the two analogs were separated efficiently.
After the purification and characterization of the new analogs by MALDI-TOF, their antimicrobial activity was tested against two gram-positive bacteria strains, Staphylococcus aureus and Bacillo subtilis, as well as two gram-negative strains, namely Escherichia coli and Pseudomonas aeruginosa (Table 1). […] They were then diluted to reach 512 μg/mL, the highest concentration tested, followed by two-fold serial dilution.

[2] = test system: Bacillus subtilis ATCC 6051; format: cell-based; settings: ATCC 6051, 24 h
Procedure: (§1) After the purification and characterization of the new analogs by MALDI-TOF, their antimicrobial activity was tested against two gram-positive bacteria strains, Staphylococcus aureus and Bacillo subtilis, as well as two gram-negative strains, namely Escherichia coli and Pseudomonas aeruginosa (Table 1). […] They were then diluted to reach 512 μg/mL, the highest concentration tested, followed by two-fold serial dilution. […] The MIC was determined using the broth micro dilution method, as described by the Clinical and Laboratory Standards Institute (CLSI) guidelines, using two gram-positive and two gram-negative bacteria strains (Staphylococcus aureus ATCC 29213, Bacillus subtilis ATCC 6051, Escherichia coli ATCC 25922, Pseudomonas aeruginosa ATCC 27853). First, the bacterial strains were sub-cultured onto Mueller Hinton agar and incubated at 37 °C for 24 h before use in the experiments. Stock solutions at 6 mg/mL in 10% DMSO were prepared for analogs 1–4 and 60% DMSO for analogs 5, 6, and 8. Second, two-fold serial dilutions of each drug/compound were made in cation-adjusted Mueller Hinton broth (CAMHB) in a 96-well microtiter plate. The bacterial inoculum was prepared in distilled water, matched to a 0.5 McFarland standard, and added to make a final volume of 200 µL in each microliter well. The plates were incubated for 24 h at 37 °C under aerobic conditions. The MIC was then recorded as the lowest concentration at which no visible growth occurred. Standard drug, media, and bacterial growth control wells were included in each plate. […] The assay was performed in triplicate to confirm the results.

[3] = test system: Escherichia coli ATCC 25922; format: cell-based; settings: ATCC 25922, 24 h
Procedure: as §1

[4] = test system: Staphylococcus aureus ATCC 29213; format: cell-based; settings: ATCC 29213, 24 h
Procedure: as §1

[5] = test system: Pseudomonas aeruginosa ATCC 27853; experiment: MIC, broth microdilution (CLSI); format: cell-based; settings: Gram−, CAMHB, 24 h at 37 °C, two-fold dilutions from 512 µg/mL, triplicate
Procedure: After the purification and characterization of the new analogs by MALDI-TOF, their antimicrobial activity was tested against two gram-positive bacteria strains, Staphylococcus aureus and Bacillo subtilis, as well as two gram-negative strains, namely Escherichia coli and Pseudomonas aeruginosa (Table 1). […] They were then diluted to reach 512 μg/mL, the highest concentration tested, followed by two-fold serial dilution. […] The MIC was determined using the broth micro dilution method, as described by the Clinical and Laboratory Standards Institute (CLSI) guidelines, using two gram-positive and two gram-negative bacteria strains (Staphylococcus aureus ATCC 29213, Bacillus subtilis ATCC 6051, Escherichia coli ATCC 25922, Pseudomonas aeruginosa ATCC 27853). First, the bacterial strains were sub-cultured onto Mueller Hinton agar and incubated at 37 °C for 24 h before use in the experiments. Stock solutions at 6 mg/mL in 10% DMSO were prepared for analogs 1–4 and 60% DMSO for analogs 5, 6, and 8. Second, two-fold serial dilutions of each drug/compound were made in cation-adjusted Mueller Hinton broth (CAMHB) in a 96-well microtiter plate. The bacterial inoculum was prepared in distilled water, matched to a 0.5 McFarland standard, and added to make a final volume of 200 µL in each microliter well. […] The MIC was then recorded as the lowest concentration at which no visible growth occurred. […]

[6] = test system: Staphylococcus aureus ATCC 29213; settings: Gram+; natural teixobactin, reference line of Table 1; cited from earlier work
Description: Table 1 Minimum Inhibitory Concentration (MIC) (µg/mL) for teixobactin analogs (1–6, 8–10). | column: Gram+ / S. aureus ATCC 29213

[7] = test system: Bacillus subtilis ATCC 6051; settings: Gram+; natural teixobactin, reference line of Table 1; cited from earlier work
Description: Table 1 Minimum Inhibitory Concentration (MIC) (µg/mL) for teixobactin analogs (1–6, 8–10). | column: Gram+ / B. subtilis ATCC 6051

[8] = test system: Escherichia coli ATCC 25922; settings: Gram−; natural teixobactin, reference line of Table 1; cited from earlier work
Description: Table 1 Minimum Inhibitory Concentration (MIC) (µg/mL) for teixobactin analogs (1–6, 8–10). | column: Gram− / E. coli ATCC 25922

[9] = test system: Pseudomonas aeruginosa ATCC 27853; settings: Gram−; natural teixobactin, reference line of Table 1; cited from earlier work
Description: Table 1 Minimum Inhibitory Concentration (MIC) (µg/mL) for teixobactin analogs (1–6, 8–10). | column: Gram− / P. aerug ATCC 27853

N-Dec-D-Phe-Arg10-teixobactin [compound 8]
solubility in solvent systems compatible with reverse-phase chromatography [1]: not possible to dissolve | solubility in water [1]: poor solubility in water

CC[C@H](C)[C@H](NC(=O)[C@@H](Cc1ccccc1)NC)C(=O)N[C@@H](CO)C(=O)N[C@H](CCC(N)=O)C(=O)N[C@@H](C(=O)N[C@H](C(=O)N[C@@H](CO)C(=O)N[C@H]1C(=O)N[C@@H](C)C(=O)N[C@@H](CCCNC(=N)N)C(=O)N[C@@H]([C@@H](C)CC)C(=O)O[C@H]1C)[C@@H](C)CC)[C@@H](C)CC [compound 1, N-Me-D-Phe-Arg10-teixobactin]
Minimum Inhibitory Concentration (MIC) B. subtilis ATCC 6051 [2]: 0.5 µg/mL | Minimum Inhibitory Concentration (MIC) E. coli ATCC 25922 [3]: 64 µg/mL | Minimum Inhibitory Concentration (MIC) S. aureus ATCC 29213 [4]: 2 µg/mL | Minimum Inhibitory Concentration (MIC) P. aerug ATCC 27853 [5]: NI ^1

CCCCCCCCCCN[C@H](Cc1ccccc1)C(=O)N[C@H](C(=O)N[C@@H](CO)C(=O)N[C@H](CCC(N)=O)C(=O)N[C@@H](C(=O)N[C@H](C(=O)N[C@@H](CO)C(=O)N[C@H]1C(=O)N[C@@H](C)C(=O)N[C@@H](CCCNC(=N)N)C(=O)N[C@@H]([C@@H](C)CC)C(=O)O[C@H]1C)[C@@H](C)CC)[C@@H](C)CC)[C@@H](C)CC [compound 5, N-De-D-Phe-Arg10-teixobactin]
Minimum Inhibitory Concentration (MIC) B. subtilis ATCC 6051 [2]: 128 µg/mL | solubility in water [1]: poor solubility in water

Teixobactin
Minimum Inhibitory Concentration (MIC) S. aureus ATCC 29213 [6]: 0.25 µg/mL | Minimum Inhibitory Concentration (MIC) B. subtilis ATCC 6051 [7]: 0.06 µg/mL | Minimum Inhibitory Concentration (MIC) E. coli ATCC 25922 [8]: 25 µg/mL | Minimum Inhibitory Concentration (MIC) P. aerug ATCC 27853 [9]: >32 µg/mL

CCCCCCCCCCN(CCCCCCCCCC)[C@H](Cc1ccccc1)C(=O)N[C@H](C(=O)N[C@@H](CO)C(=O)N[C@H](CCC(N)=O)C(=O)N[C@@H](C(=O)N[C@H](C(=O)N[C@@H](CO)C(=O)N[C@H]1C(=O)N[C@@H](C)C(=O)N[C@@H](CCCNC(=N)N)C(=O)N[C@@H]([C@@H](C)CC)C(=O)O[C@H]1C)[C@@H](C)CC)[C@@H](C)CC)[C@@H](C)CC [compound 6, N-De2-D-Phe-Arg10-teixobactin]
Minimum Inhibitory Concentration (MIC) B. subtilis ATCC 6051 [2]: 128 µg/mL | solubility in water [1]: poor solubility in water

CC[C@H](C)[C@H](NC(=O)[C@H](N)Cc1ccccc1)C(=O)N[C@@H](CO)C(=O)N[C@H](CCC(N)=O)C(=O)N[C@@H](C(=O)N[C@H](C(=O)N[C@@H](CO)C(=O)N[C@H]1C(=O)N[C@@H](C)C(=O)N[C@@H](CCCNC(=N)N)C(=O)N[C@@H]([C@@H](C)CC)C(=O)O[C@H]1C)[C@@H](C)CC)[C@@H](C)CC [compound 2, D-Phe-Arg10-teixobactin]
Minimum Inhibitory Concentration (MIC) B. subtilis ATCC 6051 [2]: 1 µg/mL | Minimum Inhibitory Concentration (MIC) E. coli ATCC 25922 [3]: 32 µg/mL | Minimum Inhibitory Concentration (MIC) S. aureus ATCC 29213 [4]: 2 µg/mL

CC[C@H](C)[C@H](NC(=O)[C@@H](Cc1ccccc1)N=C(N(C)C)N(C)C)C(=O)N[C@@H](CO)C(=O)N[C@H](CCC(N)=O)C(=O)N[C@@H](C(=O)N[C@H](C(=O)N[C@@H](CO)C(=O)N[C@H]1C(=O)N[C@@H](C)C(=O)N[C@@H](CCCNC(=N)N)C(=O)N[C@@H]([C@@H](C)CC)C(=O)O[C@H]1C)[C@@H](C)CC)[C@@H](C)CC [compound 10, N-Tmg-D-Phe-Arg10-teixobactin]
Minimum Inhibitory Concentration (MIC) B. subtilis ATCC 6051 [2]: 64 µg/mL | Minimum Inhibitory Concentration (MIC) S. aureus ATCC 29213 [4]: 256 µg/mL

CC[C@H](C)[C@H](NC(=O)[C@@H](Cc1ccccc1)N(C)C)C(=O)N[C@@H](CO)C(=O)N[C@H](CCC(N)=O)C(=O)N[C@@H](C(=O)N[C@H](C(=O)N[C@@H](CO)C(=O)N[C@H]1C(=O)N[C@@H](C)C(=O)N[C@@H](CCCNC(=N)N)C(=O)N[C@@H]([C@@H](C)CC)C(=O)O[C@H]1C)[C@@H](C)CC)[C@@H](C)CC [compound 3, N-Me2-D-Phe-Arg10-teixobactin]
Minimum Inhibitory Concentration (MIC) B. subtilis ATCC 6051 [2]: 2 µg/mL | Minimum Inhibitory Concentration (MIC) E. coli ATCC 25922 [3]: 128 µg/mL | Minimum Inhibitory Concentration (MIC) S. aureus ATCC 29213 [4]: 16 µg/mL
